Measured values published in patent US4450269A, “Mono-5-substituted-3-chloro-4H-1,2,6-thiadiazin-4-one antifungal agents” (FMC Corporation, priority 1980, dated 1984).

Columns and labels:
[1] = system: Cladosporium cucumerinum; assay: Spore germination test; type: cell-based; conditions: CC, 48 hours
Summary of the method: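 Compound in acetone mixed into water agar at 40, 10, 2.5 and 1 ppm; plates seeded with spore suspension and incubated 48 hours at 24 °C. Percentage germinated spores counted and converted into a germination rating.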

[2] = system: Rhizoctonia solani; assay: Mycelial growth test; type: cell-based; conditions: Rhizoctonia solani, 72 h, RS, read-out: Percent Fungus Growth Inhibition
Excerpt: | RS = Rhizoctonia solani

[3] = system: Erysiphe polygoni; assay: whole plant or invertebrate; conditions: foliar, 24 h, read-out: Percent Disease Control, curative, bean powdery mildew

## Cc1cc(Cl)c(Oc2nsnc(Cl)c2=O)cc1C [Compound 58, 3-chloro-5-[(2-chloro-4,5-dimethyl)phenoxy]-4H--1,2,6-thiadiazin-4-one]
[1]; 1.0 ppm
  Spore Germination Rating: 3 (60-80)
[1]; 2.5 ppm
  Spore Germination Rating: 0 (0-10)
[1]; 10 ppm
  Spore Germination Rating: 0 (0-10)
[1]; 40 ppm
  Spore Germination Rating: 0 (0-10)
[2]
  inhibition at 5 ppm: 56%
  inhibition at 10 ppm: 58%
  inhibition at 20 ppm: 53%
  inhibition at 40 ppm: 64%
[3]
  pest or weed control at 150 ppm: 50%

## O=c1c(Cl)nsnc1Oc1ccc(Cl)cc1 [Compound 12, 3-chloro-5-(4-chlorophenoxy)-4H--1,2,6-thiadiazin-4-one]
[1]; 1.0 ppm
  Spore Germination Rating: 2 (40-60)
[1]; 2.5 ppm
  Spore Germination Rating: 0 (0-10)
[1]; 10 ppm
  Spore Germination Rating: 0 (0-10)
[1]; 40 ppm
  Spore Germination Rating: 0 (0-10)
[2]
  inhibition at 5 ppm: 20%
  inhibition at 10 ppm: 58%
  inhibition at 20 ppm: 64%
  inhibition at 40 ppm: 100%
[3]
  pest or weed control at 150 ppm: 50%

## O=c1c(Cl)nsnc1Oc1ccc(O)cc1 [Compound 35, 3-chloro-5-(4-hydroxyphenoxy)-4H-1,2,6-thiadiazin-4-one]
[1]; 1.0 ppm
  Spore Germination Rating: 4 (80-100)
[1]; 2.5 ppm
  Spore Germination Rating: 0 (0-10)
[1]; 10 ppm
  Spore Germination Rating: 3 (60-80)
[1]; 40 ppm
  Spore Germination Rating: 0 (0-10)
[2]
  inhibition at 5 ppm: 0%
  inhibition at 10 ppm: 7%
  inhibition at 20 ppm: 44%
  inhibition at 40 ppm: 76%
[3]
  pest or weed control at 150 ppm: 0%

## O=C(O)Cc1ccccc1Oc1nsnc(Cl)c1=O [Compound 45, 3-(2-carboxymethylphenoxy)-5-chloro-4H--1,2,6-thiadiazin-4-one]
[1]; 1.0 ppm
  Spore Germination Rating: 4 (80-100)
[1]; 2.5 ppm
  Spore Germination Rating: 4 (80-100)
[1]; 10 ppm
  Spore Germination Rating: 2 (40-60)
[1]; 40 ppm
  Spore Germination Rating: 0 (0-10)
[2]
  inhibition at 5 ppm: 0%
  inhibition at 10 ppm: 0%
  inhibition at 20 ppm: 13%
  inhibition at 40 ppm: 42%
[3]
  pest or weed control at 150 ppm: 0%

## CCCCOc1ccc(Oc2nsnc(Cl)c2=O)cc1 [Compound 6, 3-chloro-5-(4-n-butoxyphenoxy)-4H--1,2,6-thiadiazin-4-one]
[1]; 1.0 ppm
  Spore Germination Rating: 0 (0-10)
[1]; 2.5 ppm
  Spore Germination Rating: 0 (0-10)
[1]; 10 ppm
  Spore Germination Rating: 0 (0-10)
[1]; 40 ppm
  Spore Germination Rating: 0 (0-10)
[2]
  inhibition at 5 ppm: 0%
  inhibition at 10 ppm: 0%
  inhibition at 20 ppm: 0%
  inhibition at 40 ppm: 20%
[3]
  pest or weed control at 150 ppm: 100%

## N#Cc1ccc(Oc2nsnc(Cl)c2=O)cc1 [Compound 10, 3-chloro-5-(4-cyanophenoxy)-4H--1,2,6-thiadiazin-4-one]
[1]; 1.0 ppm
  Spore Germination Rating: 0 (0-10)
[1]; 2.5 ppm
  Spore Germination Rating: 0 (0-10)
[1]; 10 ppm
  Spore Germination Rating: 0 (0-10)
[1]; 40 ppm
  Spore Germination Rating: 0 (0-10)
[2]
  inhibition at 5 ppm: 9%
  inhibition at 10 ppm: 13%
  inhibition at 20 ppm: 100%
  inhibition at 40 ppm: 100%
[3]
  pest or weed control at 150 ppm: 0%

## Cc1cc(Oc2nsnc(Cl)c2=O)ccc1Cl [Compound 54, 3-chloro-5-(4-chloro-3-methylphenoxy)-4H--1,2,6-thiadiazin-4-one]
[1]; 1.0 ppm
  Spore Germination Rating: 2 (40-60)
[1]; 2.5 ppm
  Spore Germination Rating: 0 (0-10)
[1]; 10 ppm
  Spore Germination Rating: 0 (0-10)
[1]; 40 ppm
  Spore Germination Rating: 0 (0-10)
[2]
  inhibition at 5 ppm: 38%
  inhibition at 10 ppm: 42%
  inhibition at 20 ppm: 42%
  inhibition at 40 ppm: 71%
[3]
  pest or weed control at 150 ppm: 0%

## C[S+]([O-])c1ccc(Oc2nsnc(Cl)c2=O)cc1 (stereo not drawn) [Compound 40, 3-chloro-5-[(4-methylsulfinyl)phenoxy]-4H-1,2,6,-thiadiazin-4-one]
[1]; 1.0 ppm
  Spore Germination Rating: 4 (80-100)
[1]; 2.5 ppm
  Spore Germination Rating: 0 (0-10)
[1]; 10 ppm
  Spore Germination Rating: 0 (0-10)
[1]; 40 ppm
  Spore Germination Rating: 0 (0-10)
[2]
  inhibition at 5 ppm: 0%
  inhibition at 10 ppm: 0%
  inhibition at 20 ppm: 24%
  inhibition at 40 ppm: 53%
[3]
  pest or weed control at 150 ppm: 0%

## O=c1c(Cl)nsnc1Oc1ccc(Cl)cc1Cl [Compound 17, 3-chloro-5-(2,4-dichlorophenoxy)-4H--1,2,6-thiadiazin-4-one]
[1]; 1.0 ppm
  Spore Germination Rating: 4 (80-100)
[1]; 2.5 ppm
  Spore Germination Rating: 0 (0-10)
[1]; 10 ppm
  Spore Germination Rating: 0 (0-10)
[1]; 40 ppm
  Spore Germination Rating: 0 (0-10)
[2]
  inhibition at 5 ppm: 40%
  inhibition at 10 ppm: 53%
  inhibition at 20 ppm: 76%
  inhibition at 40 ppm: 76%
[3]
  pest or weed control at 150 ppm: 100%

## O=c1c(Cl)nsnc1Oc1cc(Cl)cc(Cl)c1 [Compound 20, 3-chloro-5-(3,5-dichlorophenoxy)-4H--1,2,6-thiadiazin-4-one]
[1]; 1.0 ppm
  Spore Germination Rating: 0 (0-10)
[1]; 2.5 ppm
  Spore Germination Rating: 0 (0-10)
[1]; 10 ppm
  Spore Germination Rating: 0 (0-10)
[1]; 40 ppm
  Spore Germination Rating: 0 (0-10)
[2]
  inhibition at 5 ppm: 51%
  inhibition at 10 ppm: 58%
  inhibition at 20 ppm: 76%
  inhibition at 40 ppm: 78%
[3]
  pest or weed control at 150 ppm: 100%
